Earlier results on one compound are cited in patent publication EP4135668B1, “SOLID ORAL DOSAGE FORM COMPRISING POMALIDOMIDE” (Tecnimede, Sociedade Técnico-Medicinal, SA, priority 2020, dated 2021).

SMILES strings stand for the structures.

For this series the following is noted: low aqueous solubility and low permeability active compound.

In the case of `Nc1cccc2c1C(=O)N(C1CCC(=O)NC1=O)C2=O` (stereo not shown) [Pomalidomide, 4-amino-2-(2,6-dioxopiperidine-3-yl)isoindoline-l,3-dione], the “Biopharmaceutics Classification System (BCS) class” value is listed as “Class IV”.
